Experimental data from patent US10576151B2, “Ciclopirox for use in modulation of glucose homeostasis” (UNIVERSITY OF SOUTH CAROLINA, priority 2015, dated 2020).

Tests used:
[1] = test system: insulin; assay: Western blot of insulin levels in islets in culture; assay type: cell-based, mouse
Experimental: Western Blotting. The mouse islets were treated with CPX 20 μM for 24 h and lysed in RIPA buffer [50 mM Tris, pH 7.2; 150 mM NaCl; 1% sodium deoxycholate; 0.1% SDS; 1% Triton-X 100; 10 mM NaF; 1 mM Na3VO4; protease inhibitor cocktail (1:1000, Sigma, St. Louis, Mo.)] and were subjected to immunoblot analysis by standard methods. Proteins were resolved on a 10% SDS-PAGE and transferred to a nitrocellulose membrane (Bio-Rad, Hercules, Calif.). Membranes were probed overnight with GADD153 (F-168), sc-575 from Santa Cruz Biotechnology (1:50); p21 (F-5), sc-6246 from Santa Cruz Biotechnology (1:200); actin, clone C4 MAB1501 from Millipore (Billerica, Mass., USA) (1:2000); BiP antibody (cat. no. 3183) from Cell Signaling (Danvers, Mass., USA) (1:1000); GRP94 antibody (H-212), sc-11402 from Santa Cruz Biotechnology (1:500); insulin rabbit polyclonal H-86, sc-9168 from Santa Cruz Biotechnology (1:500) antibodies followed by incubation with horseradish peroxidase-conjugated (HRP) anti-mouse (1:10000), goat anti-rabbit IgG (1:10000, Santa Cruz biotechnology Inc., Santa Cruz, Calif., USA) for 1 hr. After incubation with enhanced chemiluminescence reagents (Santa Cruz biotechnology Inc.), membranes were analyzed using an Image J software for Windows.
In order to understand better how CPX operates in β cells, it was tested to determine if it affected the efficiency by which insulin is produced following glucose stimulation. […] In view of the antidiabetic activity of CPX in vivo, the inhibition of insulin release appears contradictory. […]
While modulation of insulin release by CPX constitutes a challenging mechanism by which CPX may affect ER stress, how CPX regulates insulin expression remains obscure. […] To test this hypothesis, islets were exposed to iron citrate, alone or combined with CPX, and the levels were recorded of chaperones BiP, GRP94 and CHOP, as well as of insulin.

[2] = test system: ROS; assay: Cellular ROS production in islets (DCFDA assay); assay type: cell-based, mice
Experimental: Measurement of Cellular ROS Production. Islets were incubated with KR buffer containing 0.01% (w/v) bovine serum albumin (BSA), 16 mM HEPES, and 2.8 mM glucose for 60 min at 37° C. ROS measurements were measured by using the DCFDA Cellular ROS Detection Assay Kit (Abcam/Mitosciences) in a 96-well dark microplate in accordance with the manufacturer's guidelines. Briefly, 30 islets were seeded into each well. On the day of the experiment, the islets were washed with 1×phosphate buffered saline and stained with 20 μM DCFH-DA in the dark for 30 min at 37° C. After incubation, DCFH-DA was removed, and the islets were washed with 1×buffer solution. Islets were seeded in a 96-well plate followed by high glucose alone or in combination with CPX glucose treatment and iron citrate alone or in combination with CPX treatment. Samples were analyzed using a Varioskan Flash micro-plate reader (Thermo-Scientific) with excitation wavelength at 485 nm and an emission wavelength at 535 nm. Tert-Butyl hydroperoxide (TBHP) was used as positive control.

[3] = test system: p21; assay: p21 stimulation in islets; assay type: cell-based, mice; conditions: dependence on p53
Experimental: Western Blotting. The mouse islets were treated with CPX 20 μM for 24 h and lysed in RIPA buffer [50 mM Tris, pH 7.2; 150 mM NaCl; 1% sodium deoxycholate; 0.1% SDS; 1% Triton-X 100; 10 mM NaF; 1 mM Na3VO4; protease inhibitor cocktail (1:1000, Sigma, St. Louis, Mo.)] and were subjected to immunoblot analysis by standard methods. Proteins were resolved on a 10% SDS-PAGE and transferred to a nitrocellulose membrane (Bio-Rad, Hercules, Calif.). […] After incubation with enhanced chemiluminescence reagents (Santa Cruz biotechnology Inc.), membranes were analyzed using an Image J software for Windows. Islets from wt, p21-deficient, p53-deficient and CHOP-deficient mice were exposed to CPX at 20 μM for 24 h under increasing glucose amounts in the culture media, then they were let to recover for 48 h in normal glucose-containing media and their survival was assessed (FIG. 9). […]

With `Cc1cc(C2CCCCC2)n(O)c(=O)c1` [CPX, 6-cyclohexyl-1-hydroxy-4-methylpyridin-2(1H)-one] as the compound, how does the “levels of intracellular insulin” value ([1]; islets in high glucose-containing media with CPX (FIG. 11B)) read?
The value was “moderate suppression”.

And the insulin production ([1]; islets, iron citrate with concomitant CPX (FIG. 12A))?
Its insulin production is “compromised the effects of iron citrate”.

What about the ROS production ([2]; ROS triggered by high glucose (FIG. 12B)) of the same compound?
The ROS production was “potent inhibitor of ROS”.

And the ROS production ([2]; ROS triggered by iron citrate (FIG. 12B))?
The ROS production was “potent inhibitor of ROS”.

What about the “p21-stimulatory activity in the islets” value [3] of the same compound?
Its value is “p53-independent”.
